Measured values published in publication PMC1890308, “Anti-calmodulins and Tricyclic Adjuvants in Pain Therapy Block the TRPV1 Channel” (PLoS ONE, 2007).

Tested on: heat evoked responses of dorsal horn neurons
Experiment: heat-evoked responses of spinal dorsal horn neurons, microiontophoresis, extracellular single unit recording
Assay type: in vivo, rat
Protocol: To validate in vivo efficacy of calmidazolium, experiments were carried out in a total of 22 nociceptive specific (NS) or wide dynamic range (WDR) spinal dorsal horn neurons in 16 lightly anesthetized rats. Effects of calmidazolium were studied on the heat evoked responses of dorsal horn neurons using noxious peripheral heat stimuli delivered in every 3 min in the cutaneous receptive field of the hind paw. After establishing stable baseline control responses, calmidazolium was iontophoresed (i.e. with 100 nA) from one of the barrels of the compound electrode. […] The calmidazolium evoked inhibition reached its maximum within 10 to 15 min after ejection and lasted throughout the entire recording periods (about 2 hrs) of the experiment. The monitored cells had excitatory receptive fields located on one of the hind paws. These cells usually had little spontaneous activity, located between 100–600 µm from the surface of the dorsal horn, as estimated by microdrive readings. […] Likewise to that determined previously in TRPV1-NIH3T3 cells, TRPV1-HaCaT keratinocyte lines and primary culture of nociceptive neurons, calmidazolium inhibited the ratemeter recorded signals of radiation heat pain in the rat (Fig. 7). […]

Structure (SMILES): Clc1ccc(C(c2ccc(Cl)cc2)n2cc[n+](CC(OCc3ccc(Cl)cc3Cl)c3ccc(Cl)cc3Cl)c2)cc1 (centres unmarked) [calmidazolium]
- heat-evoked responses, % of pre-calmidazolium baseline control (anesthetized rat, iontophoresis 100 nA, noxious peripheral heat on hind paw, mean±SD, n = 6): 34±23%
- duration of inhibition (entire recording period) (heat-evoked responses, rat): about 2 hrs
